Data published in US20260234164A1, “BIPHENYL COMPOUND AS IMMUNOMODULATOR, PREPARATION METHOD THEREFOR AND USE THEREOF” (SHENZHEN CHIPSCREEN BIOSCIENCES CO., LTD., priority 2021, published 2026).

Test system: PD-1/PD-L1-mediated T cell activation inhibitory signal
Experiment: CHO-PD-L1-CD3L / Jurkat-PD-1-NFAT co-culture luciferase reporter assay
Assay type: cell-based
Conditions: Homo sapiens, co-culture 6 h, read-out: EC50 blocking PD-1/PD-L1-mediated T cell activation inhibitory signal
Experimental: In order to detect the effect of the interaction between PD-1 and PD-L1 on T cell activation signals in the immune response, CHO-PD-L1-CD3L cells stably expressing human PD-L1 molecules and anti-CD3 single-chain antibody (ScFv) and Jurkat-PD-1-NFAT cells stably expressing human PD-1 molecule and NFAT reporter gene were constructed. When the two kinds of cells were co-incubated, the binding of anti-CD3ScFv on the surface of CHO cells and the membrane CD3 molecules of Jurkat cells would transmit an activation signal to Jurkat cells, but simultaneously, the binding of PD-L1 on the surface of CHO cells and PD-1 molecules on the surface of Jurkat cells would transmit an inhibitory signal inward to prevent expression of the luciferase reporter gene. When immune checkpoint antibodies or small molecule inhibitors were added, the binding of PD-1 and PD-L1 was blocked, the NFAT pathway activated by T cell activation signal mediated by cross-linking of CD3ScFv antibody and CD3 was no longer affected by the inhibitory signal, and the downstream luciferase reporter gene started to be expressed. A chemiluminescent signal proportional to reporter gene activation was detected by adding a catalytic substrate.
CHO-PD-L1-CD3L cells expressing human PD-L1 molecule and anti-CD3 single-chain antibody (ScFv) and Jurkat-PD-1-NFAT cells stably expressing human PD-1 molecule and NFAT reporter gene were independently constructed and provided by Dr. Chen Bo (KeyMed Bioscience (Chengdu) Co., Ltd.). Puromycin (Cat #540411) and Hygromycin B (Cat #V900372) for stable culture of transfected cells were purchased from Sigma, PMA (Cat #P1585) was purchased from Sigma, anti-human PD-L1 antibody (Cat #GMP-A066) was purchased from Novoprotein Company. Luciferase substrate solution (Cat #E6485) and luciferase-specific cell lysis solution 5× (Cat #E1531) were purchased from Promega. Fluorescence detection instrument Tecan (Spark 10M) was purchased from Switzerland Tecan Company.
(1) The day before the experiment, 100 μL of CHO-PD-L1-CD3L cells were inoculated in each well of a 96-well cell culture plate (about 4×10^4 cells/well) with a medium of DMEM/F12 containing 10% FBS, 8 μg/mL puromycin and 200 μg/mL hygromycin B, and cultured overnight at 37° C.
(2) The test compounds were diluted with 0.1% PBST into different concentration gradients, added into 96-well plates, and pre-incubated for 30 min. Jurkat-PD-1-NFAT cell count was adjusted to 2×10^5 cells/mL with the RPMI 1640 complete medium containing 10% FBS, […]8 μg/mL puromycin and 200 μg/mL hygromycin B. 100 ng/mL PMA (the stock solution was prepared with DMSO to a concentration of 10 mg/mL) was added to amplify T cell activation signal. 100 μL of the above Jurkat-PD-1-NFAT cells was added to each well of the 96-well plate for co-culture.
(3) When detecting the reaction, a control group was provided, including a solvent control without adding test compounds and a positive control with addition of anti-human PD-1 antibody as the experimental system. All detections were performed with duplicates.
(4) After continuous incubation at 37° C. for 6 h, 40 μL of 5× cell lysate was directly added, and mixed well. The plate was placed at room temperature for 10 min to completely lyse the cells. 50 μL of the lysed cell solution was transferred to a fluorescence detection plate, and added with 30 μL of luciferase substrate solution. The chemiluminescence detection program on the fluorescence detector was immediately selected for detection.
(5) The inhibition rate of T cell activation signal at the cellular level of the test compounds was calculated as follows: Inhibition rate of T cell activation signal (%)=(the original value of chemiluminescence in the detection well−solvent control)/(the highest original value of chemiluminescence detected in the compound detection well−solvent control)×100%. […]

`[2H]c1c([2H])c(NC(=O)c2nc3c(n2C)CCN(CCC24CCC(COC([2H])([2H])[2H])(CC2)C4)C3)c(F)c(-c2c([2H])c([2H])c([2H])c(NC(=O)c3nc4c(n3C)CCN(CCC35CCC(C(=O)O)(CC3)C5)C4)c2Cl)c1[2H]` (single isomer, unassigned) [Compound I-14, 4-(2-(2-((2-chloro-2′-fluoro-3′-(5-(2-(4-((methoxy-d3)methyl)bicyclo[2.2.1]heptane-1-y 1)ethyl)-1-methyl-4,5,6,7-tetrahydro-1H-imidazo[4,5-c]pyridine-2-carboxamido)-[1,1′-biphenyl]-3-yl-4,4′,5,5′,6,6′-d6)carbamoyl)-1-methyl-1,4,6,7-tetrahydro-5H-imidazo[4,5-c]pyridin-5-yl)ethyl)bicyclo[2.2.1]heptane-1-carboxylic acid] gave an EC50 of 0.0151 µM.
For `[2H]C([2H])([2H])OCC12CCC(CCN3CCc4c(nc(C(=O)Nc5cccc(-c6cccc(NC(=O)c7nc8c(n7C)CCN(CCC79CCC(C(=O)O)(CC7)C9)C8)c6C)c5Cl)n4C)C3)(CC1)C2` [Compound I-3, 4-(2-(2-((2′-chloro-3′-(5-(2-(4-((methoxy-d3)methyl)bicyclo[2.2.1]heptane-1-yl)ethyl)-1-methyl-4,5,6,7-tetrahydro-1H-imidazo[4,5-c]pyridine-2-carboxamido)-2-methyl-[1,1′-biphenyl]-3-yl)carbamoyl)-1-methyl-1,4,6,7-tetrahydro-5H-imidazo[4,5-c]pyridin-5-yl)ethyl)bicyclo[2.2.1]heptane-1-carboxylic acid], the EC50 was 0.0106 µM.
Compound `[2H]C([2H])([2H])n1c(C(=O)Nc2cccc(-c3cccc(NC(=O)c4nc5c(n4C([2H])([2H])[2H])CCN(CCC46CCC(C(=O)O)(CC4)C6)C5)c3Cl)c2C)nc2c1CCN(CCC13CCC(COC)(CC1)C3)C2` [Compound I-10, 4-(2-(2-((2-chloro-3′-(5-(2-(4-(methoxymethyl)bicyclo[2.2.1]heptane-1-yl)ethyl)-1-(methyl-d3)-4,5,6,7-tetrahydro-1H-imidazo[4,5-c]pyridine-2-carboxamido)-2′-methyl-[1,1′-biphenyl]-3-yl)carbamoyl)-1-(methyl-d3)-1,4,6,7-tetrahydro-5H-imidazo[4,5-c]pyridin-5-yl)ethyl)bicyclo[2.2.1]heptane-1-carboxylic acid] has an EC50 of 0.0299 µM.
Compound `[2H]C([2H])([2H])n1c(C(=O)Nc2cccc(-c3cccc(NC(=O)c4nc5c(n4C([2H])([2H])[2H])CCN(CCC46CCC(C(=O)O)(CC4)C6)C5)c3Cl)c2Cl)nc2c1CCN(CCC13CCC(COC)(CC1)C3)C2` [Compound I-6, 4-(2-(2-((2,2′-dichloro-3′-(5-(2-(4-((methoxy)methyl)bicyclo[2.2.1]heptane-1-yl)ethyl)-1-(methyl-d3)-4,5,6,7-tetrahydro-1H-imidazo[4,5-c]pyridine-2-carboxamido)-[1,1′-biphenyl]-3-yl)carbamoyl)-1-(methyl-d3)-1,4,6,7-tetrahydro-5H-imidazo[4,5-c]pyridin-5-yl)ethyl)bicyclo[2.2.1]heptane-1-carboxylic acid] has an EC50 of 0.0125 µM.
`[2H]C([2H])([2H])OCC12CCC(CCN3CCc4c(nc(C(=O)Nc5cccc(-c6cccc(NC(=O)c7nc8c(n7C)CCN(CCC79CCC(C(=O)O)(CC7)C9)C8)c6Cl)c5C)n4C)C3)(CC1)C2` [Compound I-4, 4-(2-(2-((2-chloro-3′-(5-(2-(4-((methoxy-d3)methyl)bicyclo[2.2.1]heptane-1-yl)ethyl)-1-methyl-4,5,6,7-tetrahydro-1H-imidazo[4,5-c]pyridine-2-carboxamido)-2′-methyl-[1,1′-biphenyl]-3-yl)carbamoyl)-1-methyl-1,4,6,7-tetrahydro-5H-imidazo[4,5-c]pyridin-5-yl)ethyl)bicyclo[2.2.1]heptane-1-carboxylic acid] was tested, and the EC50 was 0.00972 µM.
`[2H]C([2H])([2H])OCC12CCC(CCN3CCc4c(nc(C(=O)Nc5cccc(-c6cccc(NC(=O)c7nc8c(n7C)CCN(CCC79CCC(C(=O)O)(CC7)C9)C8)c6Cl)c5Cl)n4C)C3)(CC1)C2` [Compound I-1, 4-(2-(2-((2,2′-dichloro-3′-(5-(2-(4-((methoxy-d3)methyl)bicyclo[2.2.1]heptane-1-yl)ethyl)-1-methyl-4,5,6,7-tetrahydro-1H-imidazo[4,5-c]pyridine-2-carboxamido)-[1,1′-biphenyl]-3-yl)carbamoyl)-1-methyl-1,4,6,7-tetrahydro-5H-imidazo[4,5-c]pyridin-5-yl)ethyl)bicyclo[2.2.1]heptane-1-carboxylic acid] gave an EC50 of 0.0138 µM.
`[2H]C([2H])([2H])n1c(C(=O)Nc2cccc(-c3cccc(NC(=O)c4nc5c(n4C([2H])([2H])[2H])CCN(CCC46CCC(COC)(CC4)C6)C5)c3Cl)c2C)nc2c1CCN(CCC13CCC(C(=O)O)(CC1)C3)C2` [Compound I-12, 4-(2-(2-((2′-chloro-3′-(5-(2-(4-(methoxymethyl)bicyclo[2.2.1]heptane-1-yl)ethyl)-1-(methyl-d3)-4,5,6,7-tetrahydro-1H-imidazo[4,5-c]pyridine-2-carboxamido)-2-methyl-[1,1′-biphenyl]-3-yl)carbamoyl)-1-(methyl-d3)-1,4,6,7-tetrahydro-5H-imidazo[4,5-c]pyridin-5-yl)ethyl)bicyclo [2.2.1]heptane-1-carboxylic acid] showed an EC50 of 0.0479 µM.
With `[2H]C([2H])([2H])OCC12CCC(CCN3CCc4c(nc(C(=O)Nc5cccc(-c6cccc(NC(=O)c7nc8c(n7C([2H])([2H])[2H])CCN(CCC79CCC(C(=O)O)(CC7)C9)C8)c6Cl)c5F)n4C([2H])([2H])[2H])C3)(CC1)C2` (single isomer, unassigned) [Compound I-7, 4-(2-(2-((2-chloro-2′-fluoro-3′-(5-(2-(4-((methoxy-d3)methyl)bicyclo[2.2.1]heptane-1-yl)ethyl)-1-(methyl-d3)-4,5,6,7-tetrahydro-1H-imidazo[4,5-c]pyridine-2-carboxamido)-[1,1′-biphenyl]-3-yl)carbamoyl)-1-(methyl-d3)-1,4,6,7-tetrahydro-5H-imidazo[4,5-c]pyridin-5-yl)ethyl)bicyclo[2.2.1]heptane-1-carboxylic acid] the EC50 was 0.0196 µM.
`[2H]c1c([2H])c(NC(=O)c2nc3c(n2C([2H])([2H])[2H])CCN(CCC24CCC(COC([2H])([2H])[2H])(CC2)C4)C3)c(Cl)c(-c2c([2H])c([2H])c([2H])c(NC(=O)c3nc4c(n3C([2H])([2H])[2H])CCN(CCC35CCC(C(=O)O)(CC3)C5)C4)c2Cl)c1[2H]` [Compound I-13, 4-(2-(2-((2,2′-dichloro-3′-(5-(2-(4-((methoxy-d3)methyl)bicyclo[2.2.1]heptane-1-yl)ethyl)-1-(methyl-d3)-4,5,6,7-tetrahydro-1H-imidazo[4,5-c]pyridine-2-carboxamido)-[1,1′-biphenyl]-3-yl-4,4′, 5,5′,6,6′-d6)carbamoyl)-1-(methyl-d3)-1,4,6,7-tetrahydro-5H-imidazo[4,5-c]pyridin-5-yl)ethyl)bicyclo[2.2.1]heptane-1-carboxylic acid] gave an EC50 of 0.0262 µM.
`[2H]C([2H])([2H])OCC12CCC(CCN3CCc4c(nc(C(=O)Nc5cccc(-c6cccc(NC(=O)c7nc8c(n7C)CCN(CCC79CCC(C(=O)O)(CC7)C9)C8)c6Cl)c5F)n4C)C3)(CC1)C2` (single isomer, unassigned) [Compound I-2, 4-(2-(2-((2-chloro-2′-fluoro-3′-(5-(2-(4-((methoxy-d3)methyl)bicyclo[2.2.1]heptane-1-y 1)ethyl)-1-methyl-4,5,6,7-tetrahydro-1H-imidazo[4,5-c]pyridine-2-carboxamido)-[1,1′-biphenyl]-3-yl)carbamoyl)-1-methyl-1,4,6,7-tetrahydro-5H-imidazo[4,5-c]pyridin-5-yl)ethyl)bicyclo[2.2.1]heptane-1-carboxylic acid] was tested, and the EC50 was 0.0198 µM.
